Active and inactive are the calls of the source. The calls are words filed in the database; no cut-off is given here.

Format in all cases: functional
The subject of experiment [1] is IGROV-1. Briefly: Antitumor activity against human IGROV1 cells.
For another experiment, the system named is NCI-H522. Briefly: Antitumor activity against human NCI-H522 cells.
Experiment [2] deals with IGROV-1. Briefly: Antitumor activity against human IGROV1 cell xenografted athymic mouse assessed as increase in life span at 50 mg/kg, ip once daily. The note with it: route intraperitoneal.

In the case of `C#C[C@@H](O)/C=C/CCCCCCCCCCCCCCCC`, the result in the experiment on IGROV-1 [1] and in the experiment with NCI-H522 was Active.

Take `C#C[C@@H](O)/C=C/CCCCCCCCCCCCCC(C)C`: the result in the experiment with IGROV-1 [1] and with NCI-H522 was Active.

In the case of `C#C[C@@H](O)/C=C/CCCCCCCCC/C=C\CCCCC(C)C`, the outcome in the experiment on IGROV-1 [1] and in the experiment with NCI-H522 was Active.

For the molecule `C#C[C@@H](O)/C=C/CCCCCCCCCCCCCCC`, the result in the experiment on IGROV-1 [1] and in the experiment with NCI-H522 was Active. For the same molecule, the Activity in the experiment with IGROV-1 [2] came out at 36.5 days.

These data come from ChEMBL document CHEMBL1150095, “Antitumor activity and stereochemistry of acetylenic alcohols from the sponge Cribrochalina vasculum” (1995).
